These molecules were tested against FGFR2 (Homo sapiens, UniProt P21802) (assay: FGFR wild type enzyme assay (HTRF KinEASE-TK), FGFR2). Conditions: Enz FGFR2 (nM), FGFR2 wild type enzyme assay.
Chain of FGFR2 (P21802 399-821 limits assumed): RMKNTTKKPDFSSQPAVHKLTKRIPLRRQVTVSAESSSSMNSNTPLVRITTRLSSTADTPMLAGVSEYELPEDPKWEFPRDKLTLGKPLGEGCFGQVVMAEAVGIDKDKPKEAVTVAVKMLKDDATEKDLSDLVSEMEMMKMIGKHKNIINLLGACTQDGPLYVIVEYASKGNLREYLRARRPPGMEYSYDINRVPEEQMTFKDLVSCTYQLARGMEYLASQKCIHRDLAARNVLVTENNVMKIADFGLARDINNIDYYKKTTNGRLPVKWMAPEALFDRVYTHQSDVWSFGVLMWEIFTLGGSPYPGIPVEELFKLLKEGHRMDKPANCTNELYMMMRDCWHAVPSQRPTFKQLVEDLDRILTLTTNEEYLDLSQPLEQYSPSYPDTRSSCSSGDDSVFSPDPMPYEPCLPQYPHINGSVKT

Row | SMILES | IC50
1 | C[C@H](O)C(=O)N1CCC(n2cc(-c3cc(Sc4ccccc4C#N)c4c(C#N)cnn4c3)cn2)CC1 [Example 448, (S)-4-((2-cyanophenyl)thio)-6-(1-(1-(2-hydroxypropanoyl)piperidin-4-yl)-1H-pyrazol-4-yl)pyrazolo[1,5-a]pyridine-3-carbonitrile] | 0.3 nM
2 | CC(C)n1cc(-c2cc(Sc3ccccc3C#N)c3c(C#N)cnn3c2)cn1 [Example 452, 4-((2-cyanophenyl)thio)-6-(1-isopropyl-1H-pyrazol-4-yl)pyrazolo[1,5-a]pyridine-3-carbonitrile] | 0.6 nM
3 | CC(=O)N1CCC(n2nc(C)c(-c3cc(Sc4ncccc4F)c4c(C#N)cnn4c3)c2F)CC1 [Example 454, 6-(1-(1-acetylpiperidin-4-yl)-5-fluoro-3-methyl-1H-pyrazol-4-yl)-4-((3-fluoropyridin-2-yl)thio)pyrazolo[1,5-a]pyridine-3-carbonitrile] | 12 nM
4 | Cc1noc(N2CCC[C@H](n3ncc(-c4cc(Sc5ccc(F)cc5C#N)c5c(C#N)cnn5c4)c3C)C2)n1 [Example 455, 4-(2-cyano-4-fluoro-phenyl)sulfanyl-6-[5-methyl-1-[(3S)-1-(3-methyl-1,2,4-oxadiazol-5-yl)-3-piperidyl]pyrazol-4-yl]pyrazolo[1,5-a]pyridine-3-carbonitrile] | 2 nM
5 | Cc1c(-c2cc(Sc3ccc(F)cc3C#N)c3c(C#N)cnn3c2)cnn1[C@H]1CCCN(c2ccccn2)C1 [Example 456, (S)-4-((2-cyano-4-fluorophenyl)thio)-6-(5-methyl-1-(1-(pyridin-2-yl)piperidin-3-yl)-1H-pyrazol-4-yl)pyrazolo[1,5-a]pyridine-3-carbonitrile] | 8 nM
6 | N#Cc1cnn2cc(-c3cnn([C@H]4CCCNC4)n3)cc(Sc3ncccc3F)c12 [Example 457, 4-[(3-fluoro-2-pyridyl)sulfanyl]-6-[2-[(3S)-3-piperidyl]triazol-4-yl]pyrazolo[1,5-a]pyridine-3-carbonitrile] | 13 nM
7 | CC(=O)N1CC[C@H](n2cc(-c3cc(Sc4ccccc4C#N)c4c(C#N)cnn4c3)cn2)[C@@H](O)C1 [Example 458, 6-(1-((3S,4S)-1-acetyl-3-hydroxypiperidin-4-yl)-1H-pyrazol-4-yl)-4-((2-cyanophenyl)thio)pyrazolo [1,5-a]pyridine-3-carbonitrile] | 1 nM
8 | CC(=O)N1CC[C@@H](n2cc(-c3cc(Sc4ccccc4C#N)c4c(C#N)cnn4c3)cn2)[C@H](O)C1 [Example 459, 6-(1-((3R,4R)-1-acetyl-3-hydroxypiperidin-4-yl)-1H-pyrazol-4-yl)-4-((2-cyanophenyl)thio)pyrazolo [1,5-a]pyridine-3-carbonitrile] | 0.4 nM
9 | N#Cc1cc(F)ccc1Sc1cc(-c2cn([C@H]3CCCNC3)nn2)cn2ncc(C#N)c12 [Example 460, (S)-4-((2-cyano-4-fluorophenyl)thio)-6-(1-(piperidin-3-yl)-1H-1,2,3-triazol-4-yl)pyrazolo[1,5-a]pyridine-3-carbonitrile] | 6 nM
10 | N#Cc1ccccc1Sc1cc(-c2cn([C@H]3CCCNC3)nn2)cn2ncc(C#N)c12 [Example 461, (S)-4-((2-cyanophenyl)thio)-6-(1-(piperidin-3-yl)-1H-1,2,3-triazol-4-yl)pyrazolo[1,5-a]pyridine-3-carbonitrile] | 4 nM
11 | N#Cc1cc(F)ccc1Sc1cc(-c2cnn([C@H]3CCCNC3)n2)cn2ncc(C#N)c12 [Example 462, (S)-4-((2-cyano-4-fluorophenyl)thio)-6-(2-(piperidin-3-yl)-2H-1,2,3-triazol-4-yl)pyrazolo[1,5-a]pyridine-3-carbonitrile] | 19 nM
12 | N#Cc1ccccc1Sc1cc(-c2cnn([C@H]3CCCNC3)n2)cn2ncc(C#N)c12 [Example 463, (S)-4-((2-cyanophenyl)thio)-6-(2-(piperidin-3-yl)-2H-1,2,3-triazol-4-yl)pyrazolo[1,5-a]pyridine-3-carbonitrile] | 6 nM
13 | N#Cc1ccccc1Sc1cc(-c2cn([C@H]3CCNC3)nn2)cn2ncc(C#N)c12 [Example 464, (S)-4-((2-cyanophenyl)thio)-6-(1-(pyrrolidin-3-yl)-1H-1,2,3-triazol-4-yl)pyrazolo[1,5-a]pyridine-3-carbonitrile] | 5 nM
14 | N#Cc1cnn2cc(-c3cn([C@H]4CCNC4)nn3)cc(Sc3ncccc3F)c12 [Example 465, (S)-4-((3-fluoropyridin-2-yl)thio)-6-(1-(pyrrolidin-3-yl)-1H-1,2,3-triazol-4-yl)pyrazolo[1,5-a]pyridine-3-carbonitrile] | 11 nM
15 | CN1CCN(c2ccc(-c3cc(Sc4ncccc4F)c4c(C#N)cnn4c3)cc2)CC1 [Example 467, 4-((3-fluoropyridin-2-yl)thio)-6-(4-(4-methylpiperazin-1-yl)phenyl)pyrazolo[1,5-a]pyridine-3-carbonitrile] | 0.4 nM
16 | Cn1cc(-c2cc(Sc3ccccc3C#N)c3c(C#N)cnn3c2)cn1 [Example 468, 4-((2-cyanophenyl)thio)-6-(1-methyl-1H-pyrazol-4-yl)pyrazolo[1,5-a]pyridine-3-carbonitrile] | 1 nM
17 | CN1CCN(c2ccc(-c3cc(Sc4ccccc4C#N)c4c(C#N)cnn4c3)cc2)CC1 [Example 469, 4-((2-cyanophenyl)thio)-6-(4-(4-methylpiperazin-1-yl)phenyl)pyrazolo[1,5-a]pyridin-3-carbonitrile] | 0.2 nM
18 | Cc1c(-c2cc(Sc3ccc(F)cc3C#N)c3c(C#N)cnn3c2)cnn1[C@H]1CC[C@](O)(CO)CC1 [Example 470, 4-((2-cyano-4-fluorophenyl)thio)-6-(1-((1s,4s)-4-hydroxy-4-(hydroxymethyl)cyclohex-yl)-5-methyl-1H-pyrazol-4-yl)pyrazolo[1,5-a]pyridine-3-carbonitrile] | 1 nM
19 | CC1(C)C[C@H](n2cc(-c3cc(Sc4ccccc4C#N)c4c(C#N)cnn4c3)cn2)CN1 [Example 472, (S)-4-((2-cyanophenyl)thio)-6-(1-(5,5-dimethylpyrrolidin-3-yl)-1H-pyrazol-4-yl)pyrazolo[1,5-a]pyridine-3-carbonitrile] | 0.3 nM
20 | CC1(C)C[C@@H](n2cc(-c3cc(Sc4ccccc4C#N)c4c(C#N)cnn4c3)cn2)CN1 [Example 474, (R)-4-((2-cyanophenyl)thio)-6-(1-(5,5-dimethylpyrrolidin-3-yl)-1H-pyrazol-4-yl)pyrazolo[1,5-a]pyridine-3-carbonitrile] | 0.2 nM
21 | C[C@H](O)C(=O)N1CCC(n2cc(-c3cc(Sc4ccc(F)cc4C#N)c4c(C#N)cnn4c3)cn2)CC1 [Example 475, (S)-4-((2-cyano-4-fluorophenyl)thio)-6-(1-(1-(2-hydroxypropanoyl)piperidin-4-yl)-1H-pyrazol-4-yl)pyrazolo[1,5-a]pyridine-3-carbonitrile] | 1 nM

Now from value to molecule:

Row | IC50 | SMILES
22 | 2 nM | CC(C)n1cc(-c2cc(Sc3ncccc3F)c3c(C#N)cnn3c2)cn1 [Example 449, 4-((3-fluoropyridin-2-yl)thio)-6-(1-isopropyl-1H-pyrazol-4-yl)pyrazolo[1,5-a]pyridine-3-carbonitrile]
23 | 1 nM | CC(=O)N1CC[C@H](n2cc(-c3cc(Sc4ncccc4F)c4c(C#N)cnn4c3)cn2)C1 [Example 450, (S)-6-(1-(1-acetylpyrrolidin-3-yl)-1H-pyrazol-4-yl)-4-((3-fluoropyridin-2-yl)thio)pyrazolo[1,5-a]pyridine-3-carbonitrile]
24 | 1 nM | N#Cc1cnn2cc(-c3cnn([C@H]4CCN(C(=O)CO)C4)c3)cc(Sc3ncccc3F)c12 [Example 451, (S)-4-((3-fluoropyridin-2-yl)thio)-6-(1-(1-(2-hydroxyacetyl)pyrrolidin-3-yl)-1H-pyrazol-4-yl)pyrazolo[1,5-a]pyridine-3-carbonitrile]
25 | 0.4 nM | CC(=O)N1CC[C@H](n2cc(-c3cc(Sc4ccccc4C#N)c4c(C#N)cnn4c3)cn2)C1 [Example 453, (S)-6-(1-(1-acetylpyrrolidin-3-yl)-1H-pyrazol-4-yl)-4-((2-cyanophenyl)thio)pyrazolo [1,5-a]pyridine-3-carbonitrile]
26 | 6 nM | Cn1cc(-c2cc(Sc3ncccc3F)c3c(C#N)cnn3c2)cn1 [Example 466, 4-((3-fluoropyridin-2-yl)thio)-6-(1-methyl-1H-pyrazol-4-yl)pyrazolo[1,5-a]pyridine-3-carbonitrile]
27 | 1 nM | CC1(C)C[C@H](n2cc(-c3cc(Sc4ncccc4F)c4c(C#N)cnn4c3)cn2)CN1 [Example 471, (S)-6-(1-(5,5-dimethylpyrrolidin-3-yl)-1H-pyrazol-4-yl)-4-((3-fluoropyridin-2-yl)thio)pyrazolo[1,5-a]pyridine-3-carbonitrile]
28 | 1 nM | CC1(C)C[C@@H](n2cc(-c3cc(Sc4ncccc4F)c4c(C#N)cnn4c3)cn2)CN1 [Example 473, (R)-6-(1-(5,5-dimethylpyrrolidin-3-yl)-1H-pyrazol-4-yl)-4-((3-fluoropyridin-2-yl)thio)pyrazolo[1,5-a]pyridine-3-carbonitrile]
29 | 1 nM | N#Cc1cnn2cc(-c3cnn([C@H]4CCN(C5CC(O)C5)C4)c3)cc(Sc3ncccc3F)c12 (stereo partly drawn) [Example 476, (S)-4-((3-fluoropyridin-2-yl)thio)-6-(1-(1-(3-hydroxycyclobutyl)pyrroli-din-3-yl)-1H-pyrazol-4-yl)pyrazolo[1,5-a]pyridine-3-carbonitrile]
30 | 1 nM | CC(C)(O)CN1CC[C@H](n2cc(-c3cc(Sc4ncccc4F)c4c(C#N)cnn4c3)cn2)C1 [Example 477, (S)-4-((3-fluoropyridin-2-yl)thio)-6-(1-(1-(2-hydroxy-2-methylpropyl)pyrrolidin-3-yl)-1H-pyrazol-4-y)pyrazolo[1,5-a]pyridine-3-carbonitrile]
31 | 1 nM | COC(=O)N1CCC(n2cc(-c3cc(Sc4ncccc4F)c4c(C#N)cnn4c3)cn2)CC1 [Example 478, methyl 4-(4-(3-cyano-4-((3-fluoropyridin-2-yl)thio)pyrazolo[1,5-a]pyridin-6-yl)-1H-pyrazol-1-yl)piperidine-1-carboxylate]
32 | 1 nM | COC(=O)N1CCC[C@H](n2cc(-c3cc(Sc4ncccc4F)c4c(C#N)cnn4c3)cn2)C1 [Example 479, methyl (S)-3-(4-(3-cyano-4-((3-fluoropyridin-2-yl)thio)pyrazolo[1,5-a]pyridin-6-yl)-1H-pyrazol-1-yl)piperidine-1-carboxylate]
